Laboratory results: patent publication US20070128217A1 (priority 2003, published 2007)

Assays:
[1] = tested on: rabbit serum obtained by immunizing a rabbit with the SARS-CoV strain Frankfurt 1; assay type: binding; set-up: Binding of a rabbit serum to linear peptides / Binding of a rabbit serum to looped peptides / Rabbit serum linear peptides / Rabbit serum looped peptides / Binding of a rabbit serum to linear peptides of protein N of SARS-CoV Urbani (Rabbit serum linear peptides) / Binding of a rabbit serum to looped/cyclic peptides of protein N of SARS-CoV Urbani (Rabbit serum looped peptides): unit not given here
[2] = tested on: control sera (pooled serum of ten healthy LUMC hospital workers; commercial negative donor pooled serum from the Dutch bloodbank); assay type: binding, human; set-up: Binding of Control serum LUMC to linear peptides / Binding of Control serum Blood-bank to linear peptides / Binding of Control serum LUMC to looped peptides / Binding of Control Serum Blood-Bank to Looped peptides / Binding of Control serum LUMC to linear peptides of the protein M of SARS-CoV Urbani / Binding of Control serum Blood-bank to linear peptides of the protein M of SARS-CoV Urbani / Binding of Control serum LUMC to looped peptides of the protein M of SARS-CoV Urbani / Binding of Control Serum Blood-Bank to Looped peptides of the protein M of SARS-CoV Urbani: unit not given here
[3] = tested on: antibodies in sera from SARS patients (sera 1a, 1b, 2, 6, 37, 62, London, SARS-yellow, SARS-green); assay type: binding, human; set-up: Binding of serum 6 to linear peptides of protein X1 of SARS-CoV Urbani / Binding of serum 37 to linear peptides of protein X1 of SARS-CoV Urbani / Binding of serum 6 to looped/cyclic peptide (PEPSCAN-ELISA) / Binding of serum 37 to looped/cyclic peptide (PEPSCAN-ELISA) / Binding of serum 37 to looped/cyclic peptides of protein X1 of SARS-CoV Urbani / Binding of serum 6 to linear peptides of protein X2 / Binding of serum 37 to linear peptides of protein X2 / Binding of serum 37 to looped/cyclic peptides of protein X2 of SARS-CoV Urbani / Binding of serum 6 to linear peptides of protein M of SARS-CoV Urbani / Binding of serum 37 to linear peptides of protein M of SARS-CoV Urbani / Binding of serum 6 to looped/cyclic peptides of protein M of SARS-CoV Urbani / Binding of serum 37 to looped/cyclic peptides of protein M of SARS-CoV Urbani / Binding of serum 6 to linear peptides of protein X3 of SARS-CoV Urbani / Binding of serum 37 to linear peptides of protein X3 of SARS-CoV Urbani / Binding of serum 37 to looped/cyclic peptides of protein X3 of SARS-CoV Urbani / Binding of serum 6 to linear peptides of protein X4 of SARS-CoV Urbani / Binding of serum 37 to linear peptides of protein X4 of SARS-CoV Urbani / Binding of serum 37 to looped/cyclic peptides of protein X4 of SARS-CoV Urbani / Binding of serum 6 to linear peptides of protein X5 of SARS-CoV Urbani / Binding of serum 37 to linear peptides of protein X5 of SARS-CoV Urbani / Binding of serum 37 to looped/cyclic peptides of protein X5 of SARS-CoV Urbani / Binding of serum 6 to linear peptides of protein N of SARS-CoV Urbani / Binding of serum 37 to linear peptides of protein N of SARS-CoV Urbani / Binding of serum 6 to linear peptide (PEPSCAN-ELISA) / Binding of serum 1a to looped/cyclic peptides of protein N of SARS-CoV Urbani / Binding of serum 1b to looped/cyclic peptides of protein N of SARS-CoV Urbani / Binding of serum 2 to looped/cyclic peptides of protein N of SARS-CoV Urbani / Binding of serum 6 to looped/cyclic peptides of protein N of SARS-CoV Urbani / Binding of serum 37 to looped/cyclic peptides of protein N of SARS-CoV Urbani / Binding of serum 62 to looped/cyclic peptides of protein N of SARS-CoV Urbani / Binding of serum London to looped/cyclic peptides of protein N of SARS-CoV Urbani / Binding of serum SARS-green to looped/cyclic peptides of protein N of SARS-CoV Urbani: unit not given here

Sequence: MWLSYFVASFRLFAR
- Rabbit serum linear peptides [1]: 0.4
- Rabbit serum looped peptides [1]: 0.5
- Binding of Control Serum Blood-Bank to Looped peptides of the protein M of SARS-CoV Urbani [2]: 0.7
- Binding of Control serum Blood-bank to linear peptides of the protein M of SARS-CoV Urbani [2]: 0.5
- Binding of Control serum LUMC to linear peptides of the protein M of SARS-CoV Urbani [2]: 0.2
- Binding of Control serum LUMC to looped peptides of the protein M of SARS-CoV Urbani [2]: 0.7
- Binding of serum 1a to linear peptides of protein M of SARS-CoV Urbani [3]: 0.6
- Binding of serum 1b to linear peptides of protein M of SARS-CoV Urbani [3]: 0.3
- Binding of serum 2 to linear peptides of protein M of SARS-CoV Urbani [3]: 0.5
- Binding of serum 6 to linear peptides of protein M of SARS-CoV Urbani [3]: 0.3
- Binding of serum 37 to linear peptides of protein M of SARS-CoV Urbani [3]: 0.6
- Binding of serum 62 to linear peptides of protein M of SARS-CoV Urbani [3]: 0.7
- Binding of serum London to linear peptides of protein M of SARS-CoV Urbani [3]: 0.3
- Binding of serum SARS-green to linear peptides of protein M of SARS-CoV Urbani [3]: 0.2
- Binding of serum SARS-yellow to linear peptides of protein M of SARS-CoV Urbani [3]: 0.1
- Recognition of the peptide by sera of SARS-CoV infected individuals, and form (linear, looped/cyclic) in which it is recognized [3]: recognized in looped/cyclic form

Sequence: LESTQITTDTGIENA
- Binding of a rabbit serum to linear peptides [1]: 0.1
- Binding of a rabbit serum to looped peptides [1]: 0.5
- Binding of Control Serum Blood-Bank to Looped peptides [2]: 0.4
- Binding of Control serum Blood-bank to linear peptides [2]: 0.3
- Binding of Control serum LUMC to linear peptides [2]: 0.4
- Binding of Control serum LUMC to looped peptides [2]: 0.4
- Binding of serum 1a to linear peptides of protein X1 of SARS-CoV Urbani [3]: 0.6
- Binding of serum 1a to looped/cyclic peptides of protein X1 of SARS-CoV Urbani [3]: 0.4
- Binding of serum 1b to linear peptides of protein X1 of SARS-CoV Urbani [3]: 0.5
- Binding of serum 1b to looped/cyclic peptides of protein X1 of SARS-CoV Urbani [3]: 0.3
- Binding of serum 2 to linear peptides of protein X1 of SARS-CoV Urbani [3]: 0.4
- Binding of serum 2 to looped/cyclic peptides of protein X1 of SARS-CoV Urbani [3]: 0.2
- Binding of serum 6 to linear peptides of protein X1 of SARS-CoV Urbani [3]: 0.4
- Binding of serum 6 to looped/cyclic peptides of protein X1 of SARS-CoV Urbani [3]: 0.2
- Binding of serum 37 to linear peptides of protein X1 of SARS-CoV Urbani [3]: 0.5
- Binding of serum 37 to looped/cyclic peptides of protein X1 of SARS-CoV Urbani [3]: 0.3
- Binding of serum 62 to linear peptides of protein X1 of SARS-CoV Urbani [3]: 0.4
- Binding of serum 62 to looped/cyclic peptides of protein X1 of SARS-CoV Urbani [3]: 0.4
- Binding of serum London to linear peptides of protein X1 of SARS-CoV Urbani [3]: 0.2
- Binding of serum London to looped/cyclic peptides of protein X1 of SARS-CoV Urbani [3]: 0.2
- Binding of serum SARS-green to linear peptides of protein X1 of SARS-CoV Urbani [3]: 0.1
- Binding of serum SARS-green to looped/cyclic peptides of protein X1 of SARS-CoV Urbani [3]: 0.2
- Binding of serum SARS-yellow to linear peptides of protein X1 of SARS-CoV Urbani [3]: 0.2
- Binding of serum SARS-yellow to looped/cyclic peptides of protein X1 of SARS-CoV Urbani [3]: 0.3

Sequence: FLWLLWPVTLACFVL
- Rabbit serum linear peptides [1]: 0.3
- Rabbit serum looped peptides [1]: 0.4
- Binding of Control Serum Blood-Bank to Looped peptides of the protein M of SARS-CoV Urbani [2]: 0.5
- Binding of Control serum Blood-bank to linear peptides of the protein M of SARS-CoV Urbani [2]: 0.4
- Binding of Control serum LUMC to linear peptides of the protein M of SARS-CoV Urbani [2]: 0.2
- Binding of Control serum LUMC to looped peptides of the protein M of SARS-CoV Urbani [2]: 0.7
- Binding of serum 1a to linear peptides of protein M of SARS-CoV Urbani [3]: 0.6
- Binding of serum 1a to looped/cyclic peptides of protein M of SARS-CoV Urbani [3]: 0.6
- Binding of serum 1b to linear peptides of protein M of SARS-CoV Urbani [3]: 0.4
- Binding of serum 1b to looped/cyclic peptides of protein M of SARS-CoV Urbani [3]: 0.5
- Binding of serum 2 to linear peptides of protein M of SARS-CoV Urbani [3]: 0.5
- Binding of serum 2 to looped/cyclic peptides of protein M of SARS-CoV Urbani [3]: 0.6
- Binding of serum 6 to linear peptides of protein M of SARS-CoV Urbani [3]: 0.3
- Binding of serum 6 to looped/cyclic peptides of protein M of SARS-CoV Urbani [3]: 0.4
- Binding of serum 37 to linear peptides of protein M of SARS-CoV Urbani [3]: 0.6
- Binding of serum 37 to looped/cyclic peptides of protein M of SARS-CoV Urbani [3]: 0.6
- Binding of serum 62 to linear peptides of protein M of SARS-CoV Urbani [3]: 0.7
- Binding of serum 62 to looped/cyclic peptides of protein M of SARS-CoV Urbani [3]: 0.6
- Binding of serum London to linear peptides of protein M of SARS-CoV Urbani [3]: 0.4
- Binding of serum London to looped/cyclic peptides of protein M of SARS-CoV Urbani [3]: 0.2
- Binding of serum SARS-green to linear peptides of protein M of SARS-CoV Urbani [3]: 0.2
- Binding of serum SARS-green to looped/cyclic peptides of protein M of SARS-CoV Urbani [3]: 0.2
- Binding of serum SARS-yellow to linear peptides of protein M of SARS-CoV Urbani [3]: 0.1
- Binding of serum SARS-yellow to looped/cyclic peptides of protein M of SARS-CoV Urbani [3]: 0.7

Sequence: YFLQCINACRIIMRC
- Binding of a rabbit serum to linear peptides [1]: 0.1
- Binding of a rabbit serum to looped peptides [1]: 0.8
- Binding of Control Serum Blood-Bank to Looped peptides [2]: 0.6
- Binding of Control serum Blood-bank to linear peptides [2]: 0.8
- Binding of Control serum LUMC to linear peptides [2]: 0.7
- Binding of Control serum LUMC to looped peptides [2]: 0.6
- Binding of serum 1a to linear peptides of protein X1 of SARS-CoV Urbani [3]: 0.7
- Binding of serum 1a to looped/cyclic peptide (PEPSCAN-ELISA) [3]: 0.6
- Binding of serum 1b to linear peptides of protein X1 of SARS-CoV Urbani [3]: 0.6
- Binding of serum 1b to looped/cyclic peptide (PEPSCAN-ELISA) [3]: 0.4
- Binding of serum 2 to linear peptides of protein X1 of SARS-CoV Urbani [3]: 0.5
- Binding of serum 2 to looped/cyclic peptide (PEPSCAN-ELISA) [3]: 0.4
- Binding of serum 6 to linear peptides of protein X1 of SARS-CoV Urbani [3]: 0.5
- Binding of serum 6 to looped/cyclic peptide (PEPSCAN-ELISA) [3]: 1.6
- Binding of serum 37 to linear peptides of protein X1 of SARS-CoV Urbani [3]: 0.6
- Binding of serum 37 to looped/cyclic peptide (PEPSCAN-ELISA) [3]: 0.5
- Binding of serum 62 to linear peptides of protein X1 of SARS-CoV Urbani [3]: 0.6
- Binding of serum 62 to looped/cyclic peptide (PEPSCAN-ELISA) [3]: 0.6
- Binding of serum London to linear peptides of protein X1 of SARS-CoV Urbani [3]: 0.2
- Binding of serum London to looped/cyclic peptide (PEPSCAN-ELISA) [3]: 1.6
- Binding of serum SARS-green to linear peptides of protein X1 of SARS-CoV Urbani [3]: 0.3
- Binding of serum SARS-green to looped/cyclic peptide (PEPSCAN-ELISA) [3]: 0.2
- Binding of serum SARS-yellow to linear peptides of protein X1 of SARS-CoV Urbani [3]: 0.3
- Binding of serum SARS-yellow to looped/cyclic peptide (PEPSCAN-ELISA) [3]: 0.6

Sequence: TAFQHQNSKKTTKLV
- Recognition of the peptide by the rabbit serum [1]: recognized
- Binding of Control Serum Blood-Bank to Looped peptides [2]: 0.4
- Binding of Control serum Blood-bank to linear peptides [2]: 0.6
- Binding of Control serum LUMC to linear peptides [2]: 0.9
- Binding of Control serum LUMC to looped peptides [2]: 0.4
- Binding of serum 1a to linear peptides of protein X2 [3]: 0.7
- Binding of serum 1a to looped/cyclic peptides of protein X2 of SARS-CoV Urbani [3]: 0.3
- Binding of serum 1b to linear peptides of protein X2 [3]: 0.5
- Binding of serum 1b to looped/cyclic peptides of protein X2 of SARS-CoV Urbani [3]: 0.3
- Binding of serum 2 to linear peptides of protein X2 [3]: 0.5
- Binding of serum 2 to looped/cyclic peptides of protein X2 of SARS-CoV Urbani [3]: 0.2
- Binding of serum 6 to linear peptides of protein X2 [3]: 0.7
- Binding of serum 6 to looped/cyclic peptides of protein X2 of SARS-CoV Urbani [3]: 0.3
- Binding of serum 37 to linear peptides of protein X2 [3]: 0.7
- Binding of serum 37 to looped/cyclic peptides of protein X2 of SARS-CoV Urbani [3]: 0.2
- Binding of serum 62 to linear peptides of protein X2 [3]: 0.4
- Binding of serum 62 to looped/cyclic peptides of protein X2 of SARS-CoV Urbani [3]: 0.4
- Binding of serum London to linear peptides of protein X2 [3]: 0.4
- Binding of serum London to looped/cyclic peptides of protein X2 of SARS-CoV Urbani [3]: 0.2
- Binding of serum SARS-green to linear peptides of protein X2 [3]: 0.1
- Binding of serum SARS-green to looped/cyclic peptides of protein X2 of SARS-CoV Urbani [3]: 0.1
- Binding of serum SARS-yellow to linear peptides of protein X2 [3]: 0.8
- Binding of serum SARS-yellow to looped/cyclic peptides of protein X2 of SARS-CoV Urbani [3]: 0.3
